Measured values taken from patent publication US4737513A, “Novel pyrrole derivatives” (Roussel Uclaf, priority 1984, dated 1988).

System: house flies
Experiment: Study of knock-down activity of house flies (direct atomization in a Kearns and March chamber)
Format: in vivo
Conditions: for KT 50: concentration at 0.1 g/l, female house flies 4 days old, acetone (5%) and Isopar L; for knock-down power: general statement in the description
Experimental: (1) Study of knock-down activity of house flies
The test insects were female house flies 4 days old and the test was effected by direct atomization in a Kearns and March chamber using as solvent a mixture of acetone (5%) and Isopar L (petrol solvent) (quantity of solvent used, 2 ml in one second). 50 insects were used per treatment and checks were made every minute for 10 minutes, then at 15 minutes, and the KT50 was determined by the usual methods.

Compound | KT 50 [min] | knock-down power
C#CCn1ccc(COC(=O)[C@@H]2[C@H](/C=C\C(=O)OC(C)(C)C)C2(C)C)c1 [Example 3, [1-(2-propynyl)-1H-pyrrol-3-yl]-methyl (1R,cis,ΔZ) 2,2-dimethyl-3-(3-tert-butyloxy-3-oxo-1-propenyl)-cyclopropane carboxylate] | 5.8 | 
C=CCn1cc(COC(=O)[C@@H]2[C@H](C=C(Br)Br)C2(C)C)cc1C#N (relative stereo) [Example 54, [1-(2-propenyl)-2-cyano-1H-pyrrol-4-yl]methyl (1R,cis) 2,2-dimethyl-3-(2,2-dibromoethenyl)-cyclopropane carboxylate] | 4.7 | 
C=CCn1cc(COC(=O)[C@@H]2[C@H](/C=C(/F)C(=O)OCC)C2(C)C)cc1C#N [Example 53, [1-(2-propenyl)-2-cyano-1H-pyrrol-4-yl]methyl (1R,cisΔE) 2,2-dimethyl-3-[2-fluoro-2-ethoxy-2-oxo-1-propenyl]cyclopropane carboxylate] | 2.4 | 
C#CCn1ccc(COC(=O)[C@@H]2[C@H](C=C(Br)Br)C2(C)C)c1 (relative stereo) [Example 6, [1-(2-propynyl)-1H-pyrrol-3-yl]-methyl (1R,cis) 2,2-dimethyl-3-(-dibromoethenyl)-cyclopropane carboxylate] | 4.7 | 
C#CCn1ccc(COC(=O)[C@@H]2[C@H](/C=C\C(=O)OC)C2(C)C)c1 [Example 1, [1-(2-propynyl)-1H-pyrrol-3-yl]-methyl (1R,cisΔZ) 2,2-dimethyl-3-(3-methoxy-3-oxo-1-propenyl)-cyclopropane carboxylate] | 1.3 | particularly remarkable
C#CCn1cc(C(C#N)OC(=O)[C@@H]2[C@H](/C=C(/F)C(=O)OCC)C2(C)C)cc1C#N (stereo partly drawn) [Example 44] | 2.2 | 
C#CCn1cc(C(C#C)OC(=O)[C@@H]2[C@H](/C=C(/F)C(=O)OCC)C2(C)C)cc1C#N (stereo partly drawn) [Example 57, [1-(2-propynyl)-2-cyano-1H-pyrrol-4-yl]-propyn-2-yl (1R,cisΔE) 2,2-dimethyl-3-[2-fluoro-3-ethoxy-3-oxo-1-propenyl]-cyclopropane carboxylate] | 4.0 | 
CCOC(=O)/C(F)=C\[C@H]1[C@@H](C(=O)OCc2cc(C#N)n(C/C=C/Cl)c2)C1(C)C [Example 66, [2-cyano-1-[3-chloro-2-(E)-propenyl]-1H-pyrrol-4-yl]-methyl (1R,cisΔE) 2,2-dimethyl-3-[2-fluoro-3-ethoxy-3-oxo-1-propenyl]-cyclopropane carboxylate] | 7.9 | 
C=CCn1ccc(C(C#N)OC(=O)[C@@H]2[C@H](C=C(Br)Br)C2(C)C)c1 (stereo partly drawn) [Example 50, (R,S)-cyano-[1-(2-propenyl)-1H-pyrrol-3-yl]methyl (1R,cis) 2,2-dimethyl-3-(2,2-dibromoethenyl)cyclopropane carboxylate] | 3.5 | 
C#CCn1cc(C(C)OC(=O)[C@@H]2[C@H](/C=C(/F)C(=O)OCC)C2(C)C)cc1C#N (stereo partly drawn) [Example 60, [1-(2-propynyl)-2-cyano-1H-pyrrol-4-yl]-ethyl (1R,cisΔE) 2,2-dimethyl-3-(2-fluoro-3-ethoxy-3-oxo-1-propenyl)-cyclopropane carboxylate] | 1.8 | 
CCOC(=O)/C(F)=C\[C@H]1[C@@H](C(=O)OCc2cc(C#N)n(C/C=C\Cl)c2)C1(C)C [Example 65, [2-cyano-[1-(3-chloro-2-(Z)-propenyl]-1H-pyrrol-4-yl]-methyl (1R,cis,ΔE) 2,2-dimethyl-3-(2-fluoro-3-ethoxy-3-oxo-1-propenyl)-cyclopropane carboxylate] | 3.1 | 
C#CCn1ccc(COC(=O)[C@@H]2[C@H](/C=C(/F)C(=O)OCC)C2(C)C)c1 [Example 2, [1-(2-propynyl)-1H-pyrrol-3-yl]-methyl (1R,cisΔE) 2,2-dimethyl-3-(3-ethoxy-3-oxo-2-fluoro-1-propenyl)-cyclopropane carboxylate] | 1.6 | particularly remarkable
C#CCn1ccc(C(C#N)OC(=O)[C@@H]2[C@H](/C=C(/F)C(=O)OCC)C2(C)C)c1 (stereo partly drawn) [Example 15, cyano-[1-(2-propynyl)-1H-pyrrol-3-yl]-methyl (1R,cisΔE) 2,2-dimethyl-3-(3-ethoxy-3-oxo-2-fluoro-1-propenyl)-cyclopropane carboxylate] | 1.8 | particularly remarkable
C#CCn1ccc(COC(=O)[C@@H]2[C@H](/C=C(/F)C(=O)OCC)C2(C)C)c1C#N [Example 52, [1-(2-propynyl)-2-cyano-1H-pyrrol-3-yl]methyl (1R,cis) 2,2-dimethyl-3-(2-fluoro-2-ethoxy-2-oxo-1-propenyl)cyclopropane carboxylate] | 1.5 | 
C=CCn1cc(C(C#N)OC(=O)[C@@H]2[C@H](C=C(Br)Br)C2(C)C)cc1C#N (stereo partly drawn) [Example 55, (R,S)-cyano-[1-(2-propenyl)-2-cyano-1H-pyrrol-4-yl]-methyl (1R,cis) 2,2-dimethyl-3-(2,2-dibromoethenyl)-cyclopropane carboxylate] | 8.7 | 
C#CCn1ccc(COC(=O)[C@@H]2[C@H](/C=C(/F)C(=O)OC)C2(C)C)c1 [Example 4, [1-(2-propynyl)-1H-pyrrol-3-yl]-methyl (1R,cisΔE) 2,2-dimethyl-3-(3-methoxy-3-oxo-2-fluoro-1-propenyl)-cyclopropane carboxylate] | 2.4 | 
C#CCn1ccc(COC(=O)[C@@H]2[C@H](/C=C\C(=O)OC)C2(C)C)c1C#N [Example 51, [1-(2-propynyl)-2-cyano-1H-pyrrol-3-yl]methyl (1R,cis) 2,2-dimethyl-3-(3-methoxy-3-oxo-1-propenyl)cyclopropane carboxylate] | 1.9 | 
C#CCn1ccc(COC(=O)[C@@H]2[C@H](C=C(Br)Br)C2(C)C)c1C#N [Example 26] | 3.5 | 
C#CCn1ccc(C(C#N)OC(=O)[C@@H]2[C@H](/C=C(/F)C(=O)OCC)C2(C)C)c1C#N (stereo partly drawn) [Example 67, (R,S) cyano[1-(2-propynyl)-2-cyano-1H-pyrrol-3-yl]-methyl (1R,cisΔE) 2,2-dimethyl-3-(2-fluoro-3-ethoxy-3-oxo-1-propenyl)-cyclopropane carboxylate] | 3.8 | 
C#CCn1ccc(COC(=O)[C@@H]2[C@H](/C=C(/F)C(=O)OC(C)(C)C)C2(C)C)c1 [Example 5, [1-(2-propynyl)-1H-pyrrol-3-yl]-methyl (1R,cis,ΔE) 2,2-dimethyl-3-(3-tert-butoxy-3-oxo-2-fluoro-1-propenyl)-cyclopropane carboxylate] | 3.2 | 
C=CCn1ccc(COC(=O)[C@@H]2[C@H](/C=C(/F)C(=O)OCC)C2(C)C)c1 [Example 56, 1-(2-propenyl-1H-pyrrol-3-yl)-methyl (1R,cisΔE) 2,2-dimethyl-3-(2-fluoro-3-ethoxy 3-oxo-1-propenyl)-cyclopropane carboxylate] | 4.0 | 
